Structures can show the parent of a compound that is named as a salt.
Test: Absorption and fluorescence maxima of the dye in water
Type: physicochemical
Conditions: H2O

SMILES	λMax.absorption (H2 O)	λMax.fluorescence (H2 O)
CC1(C)C(=CC=CC=CC=CC2=[N+](CCCCS(=O)(=O)[O-])c3ccc(C(=O)N[C@H]4C(O)O[C@H](CO)[C@H](O)[C@@H]4O[C@@H]4O[C@H](C(=O)O)[C@@H](O)[C@H](O)[C@H]4O)cc3C2(C)C)N(CCCCS(=O)(=O)[O-])c2ccccc21.[Na+] (stereo partly shown) [Example 4, N-Chondrosin-bis-1,1'-(4-sulfobutyl)indotricarbocyanine-5-carboxylic acid amide, sodium salt]	746 nm	779 nm
CC1(C)C(=CC=CC=CC=CC2=[N+](CCCCS(=O)(=O)[O-])c3ccc(C(=O)N[C@H]4C(O)O[C@H](CO)[C@@H](O)[C@@H]4OS(=O)(=O)O)cc3C2(C)C)N(CCCCS(=O)(=O)O)c2ccc(C(=O)N[C@H]3C(O)O[C@H](CO)[C@@H](O)[C@@H]3OS(=O)(=O)O)cc21 (stereo partly drawn) [Example 3, Bis-1,1'-(4-Sulfobutyl)indotricarbocyanine-5,5'-dicarboxylic acid-di-α-D-glucosamide-di-3"-sulfate, trisodium salt]	754 nm	790 nm
CC1(C)C(=CC=CC=CC=CC2=[N+](CCCCS(=O)(=O)[O-])c3ccc(C(=O)NC4OC(CO)C(OC5OC(CO)C(OC6OC(CO)C(O)C(O)C6O)C(O)C5O)C(O)C4O)cc3C2(C)C)N(CCCCS(=O)(=O)O)c2ccccc21 (stereo not shown) [Example 5]	748 nm	779 nm
CC1(C)C(=CC=CC=CC=CC2=[N+](CCCCS(=O)(=O)[O-])c3ccc(C(=O)N[C@H]4C(O)O[C@H](CO)[C@@H](O)[C@@H]4OS(=O)(=O)O)cc3C2(C)C)N(CCCCS(=O)(=O)O)c2ccccc21 (stereo partly drawn) [Example 2, Bis-1,1'-(4-Sulfobutyl)indotricarbocyanine-5-carboxylic acid-α-D-glucosamide-3"-sulfate, disodium salt]	745 nm	779 nm
CC1(C)C(=CC=CC=CC=CC2=[N+](CCCCS(=O)(=O)[O-])c3ccc(C(=O)NCC(COS(=O)(=O)O)OS(=O)(=O)O)cc3C2(C)C)N(CCCCS(=O)(=O)O)c2ccccc21 (stereo not shown) [Example 1, N-(2,3-disulfato)propyl-1,1'-bis-(4-sulfobutyl)indotricarbocyanine-5-carboxylic acid amide, trisodium salt]	746 nm	780 nm
